# Laboratory results published in patent US20230265151A1, “GIP/GLP1 CO-AGONIST COMPOUNDS” (priority 2020, published 2023).
# Like-named read-outs stand apart in the source and are kept apart here. *1 amine or outer side, *2 acyl side, *3 side chain or, on linkers, in order; H or OH if unused. Where a SMILES comes first, the peptide text is derived from it. Side-chain parts run from the residue outwards. [ ]: non-standard residue; d: D form. The star is where a group is joined. αMePhe(2-F) = C[C@](N)(Cc1ccccc1F)C(=O)O; γGlu = O=C(O)[C@H](CCC(=O)[*:2])N[*:1]; C14 diacid = O=C(O)CCCCCCCCCCCCC(=O)*; αMeY = C[C@](N)(Cc1ccc(O)cc1)C(=O)O; αMeL = CC(C)C[C@](C)(N)C(=O)O; Orn = NCCC[C@H](N)C(=O)O; AEEA = NCCOCCOCC(=O)O; Aib = CC(C)(N)C(=O)O
# How the values were obtained:
# Assay type in all cases: cell-based
# hGLP-1R = hGLP-1R (Homo sapiens, UniProt P43220); assay: Functional cAMP formation (HTRF) in HEK-293 clonal cells expressing hGLP-1R, 0.1% bovine casein, without or with 1.0% human serum albumin; parameters: expressed in transfected cells; settings: for EC50: geometric mean; for Emax: percent of maximal response to GLP-1(7-36)NH2
# Sequence of hGLP-1R (P43220 24-463): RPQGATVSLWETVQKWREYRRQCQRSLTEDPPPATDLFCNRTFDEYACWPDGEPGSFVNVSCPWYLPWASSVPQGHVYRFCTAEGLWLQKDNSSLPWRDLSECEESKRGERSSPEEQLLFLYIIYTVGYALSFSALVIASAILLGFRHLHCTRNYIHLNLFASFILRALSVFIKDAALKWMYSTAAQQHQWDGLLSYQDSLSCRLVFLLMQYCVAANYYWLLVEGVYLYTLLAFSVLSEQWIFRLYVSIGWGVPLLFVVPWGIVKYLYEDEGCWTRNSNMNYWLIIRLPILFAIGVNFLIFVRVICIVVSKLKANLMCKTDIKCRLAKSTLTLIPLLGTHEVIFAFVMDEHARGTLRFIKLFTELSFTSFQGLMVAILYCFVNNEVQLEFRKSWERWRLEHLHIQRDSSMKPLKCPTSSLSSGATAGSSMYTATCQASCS
# Procedure, shortened: (§1)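 Cells were stimulated with peptide for 30 min at 37° C, then intracellular cAMP was measured by competitive HTRF (665/620 nm ratio) and converted to nM using a cAMP standard curve. Relative EC50 and Emax came from four-parameter logistic fits of percent maximal response against peptide concentration.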
# hGCGR = molecular target: T1, hGCGR (Homo sapiens, UniProt P47871); assay: Functional cAMP formation (HTRF) in HEK-293 clonal cells expressing hGCGR, 0.1% bovine casein, without or with 1.0% human serum albumin; settings: geometric mean
# T1 construct: expressed in transfected cells
# T1 sequence (P47871 26-477): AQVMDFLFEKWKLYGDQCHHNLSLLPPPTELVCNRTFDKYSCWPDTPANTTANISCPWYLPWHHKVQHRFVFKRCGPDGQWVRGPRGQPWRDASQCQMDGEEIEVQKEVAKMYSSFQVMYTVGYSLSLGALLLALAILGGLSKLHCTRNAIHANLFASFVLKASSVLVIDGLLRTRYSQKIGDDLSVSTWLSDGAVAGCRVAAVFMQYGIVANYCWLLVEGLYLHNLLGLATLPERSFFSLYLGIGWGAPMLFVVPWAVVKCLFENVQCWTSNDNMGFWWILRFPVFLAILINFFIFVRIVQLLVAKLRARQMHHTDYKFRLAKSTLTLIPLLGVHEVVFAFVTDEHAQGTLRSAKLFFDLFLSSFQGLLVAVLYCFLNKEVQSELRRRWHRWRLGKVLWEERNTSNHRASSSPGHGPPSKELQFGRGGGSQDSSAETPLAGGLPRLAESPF
# Procedure, shortened: as §1
# hGIPR = molecular target: T2, hGIPR (Homo sapiens, UniProt P48546); assay: Functional cAMP formation (HTRF) in HEK-293 clonal cells expressing hGIPR, 0.1% bovine casein, without or with 1.0% human serum albumin; settings: for EC50: cAMP, 0.1% bovine casein (no human serum albumin), geometric mean
# T2 construct: expressed in transfected cells
# T2 sequence (P48546 22-466): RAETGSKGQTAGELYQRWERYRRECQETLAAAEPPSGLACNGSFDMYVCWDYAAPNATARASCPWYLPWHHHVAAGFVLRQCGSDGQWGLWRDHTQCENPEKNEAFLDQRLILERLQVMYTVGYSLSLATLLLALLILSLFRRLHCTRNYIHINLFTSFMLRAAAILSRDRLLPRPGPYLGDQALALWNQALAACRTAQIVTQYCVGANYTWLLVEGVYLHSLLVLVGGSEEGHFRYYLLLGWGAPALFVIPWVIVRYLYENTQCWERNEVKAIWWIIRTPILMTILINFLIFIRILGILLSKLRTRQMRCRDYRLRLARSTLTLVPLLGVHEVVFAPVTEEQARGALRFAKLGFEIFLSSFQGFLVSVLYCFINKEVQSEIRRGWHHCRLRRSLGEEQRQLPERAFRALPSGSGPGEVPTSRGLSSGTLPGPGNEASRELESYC
# Procedure, shortened: as §1
# [1] = cAMP, 37° C., 0.1% bovine casein (no human serum albumin), read-out: hGLP-1R EC50, nM (SEM, n)
# [2] = 0.1% bovine casein and 1.0% human serum albumin, 37° C., read-out: hGCGR EC50, nM (SEM, n)
# [3] = cAMP, 37° C., 0.1% bovine casein (no human serum albumin), read-out: hGCGR EC50, nM (SEM, n)
# [4] = HEK293, 0.1% bovine casein and 1.0% human serum albumin, 37° C., percent of maximal response to GIP(1-42)NH2, read-out: hGIPR Emax, % ± SEM
# [5] = HEK293, cAMP, 37° C., 0.1% bovine casein, percent of maximal response to GIP(1-42)NH2, arithmetic mean, read-out: hGIPR Emax, % ± SEM
# [6] = 37° C., read-out: hGIPR EC50, nM (SEM, n)
# [7] = HEK293, 0.1% bovine casein and 1.0% human serum albumin, 37° C., read-out: hGLP-1R Emax, % ± SEM
SMILES,"EC50 (hGLP-1R; 0.1% bovine casein and 1.0% human serum albumin, 37° C., read-out: hGLP-1R EC50, nM (SEM, n))",EC50 (hGLP-1R; [1]),EC50 (hGCGR; [2]),EC50 (hGCGR; [3]),Emax (hGIPR; [4]),Emax (hGIPR; [5]),EC50 (hGIPR; [6]),"Emax (hGLP-1R; HEK293, read-out: hGLP-1R Emax, % ± SEM, 0.1% bovine casein and 1.0% human serum albumin, 37° C.)","EC50 (hGLP-1R; hGLP-1R EC50, nM (SEM, n), cAMP, incubated at 37° C., 0.1% bovine casein (no human serum albumin))","EC50 (hGCGR; hGCGR EC50, nM (SEM, n), 0.1% bovine casein and 1.0% human serum albumin, 37° C.)","EC50 (hGCGR; hGCGR EC50, nM (SEM, n), cAMP, incubated at 37° C., 0.1% bovine casein (no human serum albumin))","Emax (hGIPR; HEK293, read-out: hGIPR Emax, % ± SEM, 0.1% bovine casein and 1.0% human serum albumin, 37° C., percent of maximal response to GIP(1-42)NH2)","EC50 (hGIPR; hGIPR EC50, nM (SEM, n), incubated at 37° C.)",Emax (hGLP-1R; [7]),"EC50 (hGLP-1R; cAMP, incubated at 37° C., 0.1% bovine casein (no human serum albumin), read-out: hGLP-1R EC50, nM (SEM, n))","EC50 (hGCGR; cAMP, incubated at 37° C., 0.1% bovine casein (no human serum albumin), read-out: hGCGR EC50, nM (SEM, n))","Emax (hGIPR; HEK293, percent of maximal response to GIP(1-42)NH2, 37° C., 0.1% bovine casein, arithmetic mean, read-out: hGIPR Emax, % ± SEM)","EC50 (hGIPR; incubated at 37° C., read-out: hGIPR EC50, nM (SEM, n))","Emax (hGLP-1R; HEK293, cAMP, 37° C., 0.1% bovine casein, arithmetic mean, read-out: hGLP-1R Emax, % ± SEM)"
CC[C@H](C)[C@H](NC(=O)[C@H](CC(C)C)NC(=O)[C@](C)(Cc1ccc(O)cc1)NC(=O)[C@@H](CCC(=O)O)NC(=O)[C@@H](NC(=O)[C@H](Cc1ccccc1)NC(=O)[C@H](CCCCNC(=O)COCCOCCNC(=O)COCCOCCNC(=O)CC[C@H](NC(=O)CCCCCCCCCCCCC(=O)O)C(=O)O)NC(=O)C(C)(C)NC(=O)[C@H](CCC(N)=O)NC(=O)[C@H](C)NC(=O)[C@H](CCCCNC(=O)COCCOCCNC(=O)COCCOCCNC(=O)CC[C@H](NC(=O)CCCCCCCCCCCCC(=O)O)C(=O)O)NC(=O)[C@H](CCCN)NC(=O)[C@H](CC(=O)O)NC(=O)[C@H](CC(C)C)NC(=O)[C@](C)(CC(C)C)NC(=O)[C@@H](NC(=O)[C@H](CO)NC(=O)[C@H](Cc1ccc(OC)cc1)NC(=O)[C@H](CC(=O)O)NC(=O)[C@H](CO)NC(=O)[C@@H](NC(=O)[C@](C)(Cc1ccccc1F)NC(=O)[C@@H](NC(=O)CNC(=O)[C@H](CCC(=O)O)NC(=O)C(C)(C)NC(=O)[C@@H](N)Cc1ccc(O)cc1)[C@@H](C)O)[C@@H](C)O)[C@@H](C)CC)[C@@H](C)CC)C(=O)N[C@@H](CCC(=O)O)C(=O)NCC(=O)NCC(=O)N1CCC[C@H]1C(=O)N[C@@H](CO)C(=O)N[C@@H](CO)C(=O)NCC(=O)N[C@@H](C)C(=O)N1CCC[C@H]1C(=O)N1CCC[C@H]1C(=O)N1CCC[C@H]1C(=O)N[C@@H](CO)C(N)=O [Example 259] (H-Y[Aib]EGT[αMePhe(2-F)]TSDY(Me)SI[αMeL]LD[Orn]K([AEEA-AEEA-γGlu-C14 diacid])AQ[Aib]K([AEEA-AEEA-γGlu-C14 diacid])FI[dE][αMeY]LIEGGPSSGAPPPS-NH2),28.9 nM,0.362 nM,> 9950 nM,> 9950 nM,66.4%,111%,0.0198 nM,,,,,,,,,,,,
CC[C@H](C)[C@H](NC(=O)[C@H](CCCN)NC(=O)[C@H](CC(=O)O)NC(=O)[C@H](CC(C)C)NC(=O)[C@](C)(CC(C)C)NC(=O)[C@@H](NC(=O)C(C)(C)NC(=O)[C@H](Cc1ccc(O)cc1)NC(=O)[C@H](CC(=O)O)NC(=O)[C@H](CO)NC(=O)[C@@H](NC(=O)[C@](C)(Cc1ccccc1F)NC(=O)[C@@H](NC(=O)CNC(=O)[C@H](CCC(=O)O)NC(=O)C(C)(C)NC(=O)[C@@H](N)Cc1ccc(O)cc1)[C@@H](C)O)[C@@H](C)O)[C@@H](C)CC)C(=O)N[C@@H](C)C(=O)N[C@@H](CCC(N)=O)C(=O)NC(C)(C)C(=O)N[C@@H](CCC(=O)O)C(=O)N[C@@H](Cc1ccccc1)C(=O)N[C@H](C(=O)N[C@@H](CCCCNC(=O)COCCOCCNC(=O)COCCOCCNC(=O)CC[C@H](NC(=O)CCCCCCCCCOc1ccc(C(=O)O)cc1)C(=O)O)C(=O)N[C@@](C)(Cc1ccc(O)cc1)C(=O)N[C@@H](CC(C)C)C(=O)N[C@H](C(=O)N[C@@H](CCCCNC(=O)COCCOCCNC(=O)COCCOCCNC(=O)CC[C@H](NC(=O)CCCCCCCCCOc1ccc(C(=O)O)cc1)C(=O)O)C(=O)NCC(=O)NCC(=O)N1CCC[C@H]1C(=O)N[C@@H](CO)C(=O)N[C@@H](CO)C(=O)NCC(=O)N[C@@H](C)C(=O)N1CCC[C@H]1C(=O)N1CCC[C@H]1C(=O)N1CCC[C@H]1C(=O)N[C@@H](CO)C(N)=O)[C@@H](C)CC)[C@@H](C)CC [Example 239],,,,,,,,109%,0.546 nM,> 9950 nM,> 9950 nM,89.1%,0.0328 nM,,,,,,
CC[C@H](C)[C@H](NC(=O)[C@H](CC(C)C)NC(=O)[C@](C)(Cc1ccc(O)cc1)NC(=O)[C@@H](CCC(=O)O)NC(=O)[C@@H](NC(=O)[C@H](Cc1ccccc1)NC(=O)CNC(=O)C(C)(C)NC(=O)[C@H](CCC(N)=O)NC(=O)[C@H](C)NC(=O)[C@H](CCCCNC(=O)COCCOCCNC(=O)COCCOCCNC(=O)CC[C@H](NC(=O)CCCCCCCCCCCCC(=O)O)C(=O)O)NC(=O)[C@H](CCCN)NC(=O)[C@H](CC(=O)O)NC(=O)[C@H](CC(C)C)NC(=O)[C@](C)(CC(C)C)NC(=O)[C@@H](NC(=O)[C@H](CO)NC(=O)[C@H](Cc1ccncc1)NC(=O)[C@H](CC(=O)O)NC(=O)[C@H](CO)NC(=O)[C@@H](NC(=O)[C@](C)(Cc1ccccc1F)NC(=O)[C@@H](NC(=O)CNC(=O)[C@H](CCC(=O)O)NC(=O)C(C)(C)NC(=O)[C@@H](N)Cc1ccc(O)cc1)[C@@H](C)O)[C@@H](C)O)[C@@H](C)CC)[C@@H](C)CC)C(=O)N[C@@H](CCC(=O)O)C(=O)NCC(=O)NCC(=O)N[C@@H](CCCCNC(=O)COCCOCCNC(=O)COCCOCCNC(=O)CC[C@H](NC(=O)CCCCCCCCCCCCC(=O)O)C(=O)O)C(=O)N[C@@H](CO)C(=O)N[C@@H](CO)C(=O)NCC(=O)N[C@@H](C)C(=O)N1CCC[C@H]1C(=O)N1CCC[C@H]1C(=O)N1CCC[C@H]1C(=O)N[C@@H](CO)C(N)=O [Example 103],,,> 9950 nM,,94.2%,,,,,,,,,96.9%,2.1 nM,> 9950 nM,92.8%,0.0305 nM,
CC[C@H](C)[C@H](NC(=O)[C@H](CCCN)NC(=O)[C@H](CC(=O)O)NC(=O)[C@H](CC(C)C)NC(=O)[C@](C)(CC(C)C)NC(=O)[C@@H](NC(=O)[C@H](CO)NC(=O)[C@H](Cc1ccc(OC)cc1)NC(=O)[C@H](CC(=O)O)NC(=O)[C@H](CO)NC(=O)[C@@H](NC(=O)[C@](C)(Cc1ccccc1F)NC(=O)[C@@H](NC(=O)CNC(=O)[C@H](CCC(=O)O)NC(=O)C(C)(C)NC(=O)[C@@H](N)Cc1ccc(O)cc1)[C@@H](C)O)[C@@H](C)O)[C@@H](C)CC)C(=O)N[C@@H](C)C(=O)N[C@@H](CCC(N)=O)C(=O)NC(C)(C)C(=O)N[C@@H](CCCCNC(=O)COCCOCCNC(=O)COCCOCCNC(=O)CC[C@H](NC(=O)CCCCCCCCCCCCC(=O)O)C(=O)O)C(=O)N[C@@H](Cc1ccccc1)C(=O)N[C@H](C(=O)N[C@H](CCC(=O)O)C(=O)N[C@@](C)(Cc1ccc(O)cc1)C(=O)N[C@@H](CC(C)C)C(=O)N[C@H](C(=O)N[C@@H](CCC(=O)O)C(=O)NCC(=O)NCC(=O)N1CCC[C@H]1C(=O)N[C@@H](CO)C(=O)N[C@@H](CO)C(=O)NCC(=O)N[C@@H](C)C(=O)N1CCC[C@H]1C(=O)N1CCC[C@H]1C(=O)N1CCC[C@H]1C(=O)N[C@@H](CO)C(=O)N[C@@H](CCCCNC(=O)COCCOCCNC(=O)COCCOCCNC(=O)CC[C@H](NC(=O)CCCCCCCCCCCCC(=O)O)C(=O)O)C(N)=O)[C@@H](C)CC)[C@@H](C)CC [Example 264] (H-Y[Aib]EGT[αMePhe(2-F)]TSDY(Me)SI[αMeL]LD[Orn]IAQ[Aib]K([AEEA-AEEA-γGlu-C14 diacid])FI[dE][αMeY]LIEGGPSSGAPPPSK([AEEA-AEEA-γGlu-C14 diacid])-NH2),,0.413 nM,> 9950 nM,> 9950 nM,84.4%,114%,0.0208 nM,,,,,,,105%,,,,,113%
